Laboratory results published in patent US11566222B2, “γδ T cell expansion procedure” (KING'S COLLEGE LONDON, priority 2014, dated 2023).

How the values were obtained:
Vγ9Vδ2 T-cells = assay: Ex-vivo expansion of Vγ9Vδ2 T-cells from PBMC; assay type: cell-based, human
Protocol: To enrich these cells, peripheral blood mononuclear cells (PBMC) were activated with ZA and cultured in AB serum-containing RPMI 1640 medium, supplemented with IL-2/IL-15. Specifically, PBMC isolated from normal (healthy) donors (n=21 separate donors) and from patients with EOC (n=13 separate donors) were cultured with ZA (1 μg/ml day 1 only), IL-2 (100 U/ml) and IL-15 (10 ng/ml). Cytokines and medium were added daily.
Isolated PBMC cells were then reconstituted in GMP TexMACS Media (Miltenyi) at 3×10^6 cell/mL. To the reconstituted cells, 1 μg/mL Zoledronic Acid (Zometa, Novartis) was added as an activator, together with 100 U/mL IL-2 and 5 ng/mL TGF-β. The cells were incubated at 37° C. in air containing 5% carbon dioxide.
On day 3, cells were fed with 100 U/mL IL-2 and 5 ng/mL TGF-β. Thereafter, on days 4, 7, 9, 11, 13, 15, cells were counted by trypan exclusion using a hemocytometer. If the number of T-cells was less than 1×10^6 cells/mL, a further 100 U/mL IL-2 and 5 ng/mL TGF-β were added. If the number of T-cells was between 1×10^6 and 2×10^6 cells/mL, an equivalent volume of TexMACS medium was added together with 100 U/mL IL-2 and 5 ng/mL TGF-β. If the number of T-cells was greater than 2×10^6 […], double the volume of TexMACS media was added together with 100 U/mL IL-2 and 5 ng/mL TGF-β.
After 15 days, the cells were analyzed by flow cytometry with a pan γδ antibody to confirm the enrichment of γδ T-cells in these cultures.
The methodology of Example 1 above was repeated using a different basic medium, specifically RPMI+human AB serum. In particular, PBMC (3×10^6 cells/ml) were cultured in RPMI+10% human AB serum containing zoledronic acid (1 μg/ml)+IL-2 (100 U/ml; method 1) or zoledronic acid (1 μg/ml)+IL-2 (100 U/ml)+TGF-β (5 ng/ml; method 2). The percentage of γδ T-cells present in each culture was evaluated on the day of initiation of the cultures (day 1) and after a further 14 days (day 15) and the results are shown in FIG. 9B.

[1] = system: U937 tumor cells or KG-1 tumor cells; assay: Cytotoxicity assay (luciferase) with cytarabine-pulsed tumor cells, 1:1 effector:target; assay type: cell-based; conditions: sub-lethal doses, 24 h pulse before T-cells
Protocol: Cytotoxicity assays were established in triplicate at a 1:1 effector:target ratio in 96 well plates containing either U937 tumor cells or KG-1 tumor cells. Where indicated, tumor cells were pulsed for 24 h with the indicated concentrations of cytarabine, prior to addition of γδ T-cells, produced either using the method of the invention (M2) or the method of the comparative example (M1) above. There were three donors for the M2 cells and two donors for the M1 cells. A control group received no cytarabine.
Residual tumor cell viability was measured after overnight co-culture with Vγ9Vδ2 T-cells by luciferase assay.

IL-15: cytokine supplement (10 ng/ml) in comparative expansion
yield of cells on addition of IL-15 (Vγ9Vδ2 T-cells; RPMI 1640 with AB serum, ZA + IL-2, IL-15 10 ng/ml): no significant difference

TGF-β
cell expansion on addition of TGF-β (Vγ9Vδ2 T-cells; RPMI + 10% human AB serum, ZA + IL-2, 5 ng/ml TGF-β, day 15): enhanced cell expansion
yield of Vγ9Vδ2 T-cells on addition of TGF-β (Vγ9Vδ2 T-cells; TexMACS medium, ZA + IL-2, 5 ng/mL TGF-β, 15 days): substantially enhanced yields

Nc1ccn([C@@H]2O[C@H](CO)[C@@H](O)[C@@H]2O)c(=O)n1 [cytarabine]
effect of cytarabine on anti-tumor activity of method 2 Vγ9Vδ2 T-cells [1]: potentiated the anti-tumor activity
